Data from PMC12071944, “Interaction Between Glucagon-like Peptide 1 and Its Analogs with Amyloid-β Peptide Affects Its Fibrillation and Cytotoxicity” (International Journal of Molecular Sciences, 2025).
“Also recorded” adds a separate entry of the source. Like-named read-outs stand apart in the source and are kept apart here. One block for each compound: values may come before it. Ends that are not written are not given here.

What was measured:
[1] = Dynamic light scattering, quaternary structure of GLP-1RAs; format: physicochemical; details: DLS, 25 °C, pH 7.4
Method: DLS measurements were carried out using a Zetasizer Nano ZS system (Malvern Instruments Ltd., Malvern, UK). The backscattered light from a 4 mW He-Ne laser at 632.8 nm was collected at an angle of 173°. […] The acquisition time for a single autocorrelation function was 100 s. The resulting autocorrelation functions were averaged values from three measurements. The volume-weighted size distributions were calculated using the following parameters for the buffer: the refractive index of 1.334 was measured using the RL3 refractometer (PZO, Warszawa, Poland); the viscosity value η = 0.95 mPa∙s was measured using a micro-rheology method with a water suspension of standard latex nanoparticles (NIST 3060A, Thermo Fisher Scientific, Waltham, MA, USA). The molecular mass and its standard deviation corresponding to the volume-weighted hydrodynamic radius MWRh distribution was calculated in approximation of a globular protein according to the equations from ref. [86]. The degree of multimerization was calculated as the MWRh/MWm ratio, where MWm is the molecular mass of the monomeric GLP-1RAs calculated from their molecular structure.

[2] = tested on: Aβ40 fibrillation; assay: ThT fluorescence assay of Aβ40 fibrillation; format: biochemical, Human; details: 20 µM Aβ40, 10 µM GLP-1RA, 30 °C, pH 7.4
Method: The influence of GLP-1RAs on Aβ40 fibril formation at 30 °C was studied using the ThT fluorescence assay at ThT and GLP-1RA concentrations of 10 μM for both components (Figure 4).
Standard deviations of the fluorescence signals are indicated. Excitation wavelength of 440 nm.
The Aβ40 sample was prepared as described in ref. [82] with some modifications (~5 mM NaOH at pH 11.8, 0.5 mg/mL). […] The control curves (without Aβ40; Figure S1) were subtracted from the corresponding kinetic curves of Aβ40 samples with/without GLP-1RAs. Each measurement was performed in 2–10 repetitions. The mean fluorescence signal values for each experimental sample were normalized to the average fluorescence signal corresponding to the saturation phase of Aβ40 fibril formation without additives. Data are presented as mean ± standard deviation.

[3] = cited from earlier work
[4] = tested on: animal AD models; details: ref [29]; cited from earlier work
[5] = b29: plasma concentrations; ref [61],[62]; cited from earlier work
[6] = tested on: serum albumin (HSA); details: attached fatty acid chain; ref [44],[45]; cited from earlier work
[7] = tested on: APP/PS1 AD mice; details: ref [47],[48],[49]; cited from earlier work
[8] = tested on: SH-SY5Y cells; assay: MTT assay, Aβ40 cytotoxicity toward SH-SY5Y cells; details: 48 h
Method: (§1) GLP-1RAs were premixed with Aβ40/Aβ42 at an equimolar ratio in serum-free medium and added to the SH-SY5Y cells cultured in the same medium to a final concentration of both components of 10 µM. Staining with MTT was performed after incubation of the cells for 48 h.
(§2) Mean values and standard deviations are indicated.
(§3) Human neuroblastoma SH-SY5Y cells were cultured in DMEM-F12 medium supplemented with 1% penicillin-streptomycin-glutamine and 10% fetal bovine serum at 37 °C for 24 h in a humidified atmosphere with 5% CO2. Upon reaching 80% confluence, the cells were harvested and seeded into 96-well plates at a density of 15 × 10^5 cells per well in serum-free DMEM/F12 + PSG medium.
(§4) The Aβ40/Aβ42 samples were dissolved in fresh 1% NH4OH at a concentration of 0.5 mg/mL, followed by freeze-drying.
(§5) Freshly prepared Aβ40/Aβ42, GLP-1RAs, or their mixtures were added (100 µL per well) to the cultures 24 h after seeding to a final concentration of both components of 10 µM. The final volume of medium in the well was 200 µL. The MTT assay, designed to assess cellular metabolic activity, was performed after incubation of the cells for 48 h. MTT (0.005 mg/mL) was added and the cells were incubated for 3 h, followed by solubilization of the cells using DMSO. […] The resulting values were normalized relative to the control group of the untreated cells (100%). […]

[9] = tested on: SH-SY5Y cells; assay: MTT assay, Aβ42 cytotoxicity toward SH-SY5Y cells; details: 48 h
Method: as §1, §2, §3, §4
Freshly prepared Aβ40/Aβ42, GLP-1RAs, or their mixtures were added (100 µL per well) to the cultures 24 h after seeding to a final concentration of both components of 10 µM. The final volume of medium in the well was 200 µL. The MTT assay, designed to assess cellular metabolic activity, was performed after incubation of the cells for 48 h. MTT (0.005 mg/mL) was added and the cells were incubated for 3 h, followed by solubilization of the cells using DMSO. […] The resulting values were normalized relative to the control group of the untreated cells (100%). Data are presented as mean ± standard deviation (n = 5–10).

[10] = tested on: SH-SY5Y cells; assay: MTT assay, Aβ (Aβ40/Aβ42) cytotoxicity toward SH-SY5Y cells; details: 10 µM Aβ40/Aβ42 and 10 µM GLP-1RA, 48 h, summary table
Method: as §1, §2, §3, §4, §5

[11] = tested on: AD patients; details: cited from earlier work; for cognition and memory: patients with mild cognitive impairment and AD, ref [16]
Source text: Worldwide, approximately 416 million individuals are affected by AD dementia, prodromal AD, or preclinical AD, accounting for 22% of the population aged 50 years and older.

[12] = tested on: cultured neuronal cells; details: ref [30], cited from earlier work
[13] = tested on: Aβ levels in the mouse brain; details: in vivo; ref [30]; cited from earlier work
Source text: The N-terminally truncated forms of GLP-1, GLP-1(7-36)/(7-37), secreted from intestinal L cells, control meal-related glycemic excursions by augmentation of insulin expression and secretion and inhibition of glucagon release (reviewed in [21]). Some population of neurons in the nucleus tractus solitarii of the brainstem can also express GLP-1 [22, 23].

[14] = tested on: Aβ40 fibrils; assay: Negative-staining TEM of Aβ40 fibrils; format: biochemical, Human
Method: The scale bars represent 1 μm.
A copper grid (300-mesh) coated with a 0.2% formvar film was placed on a 10 µL drop of the sample. […] Excess stain was removed using filter paper, and the grid was rinsed in deionized water for 1 min. The samples were analyzed using a JEM-1400Plus (HC) transmission electron microscope (JEOL, Ltd., Tokyo, Japan) at an accelerating voltage of 80 keV.

oligomerization, in words [1]: strong oligomerization
molecular mass from Rh (MWRh) ([1]; 5–83 µM, globular protein approximation): >7 × 10^5 kDa
Compound: CC[C@H](C)[C@H](NC(=O)[C@H](Cc1ccccc1)NC(=O)[C@H](CCC(=O)O)NC(=O)[C@H](CCCCN)NC(=O)[C@H](C)NC(=O)[C@H](C)NC(=O)[C@H](CCC(N)=O)NC(=O)CNC(=O)[C@H](CCC(=O)O)NC(=O)[C@H](CC(C)C)NC(=O)[C@H](Cc1ccc(O)cc1)NC(=O)[C@H](CO)NC(=O)[C@H](CO)NC(=O)[C@@H](NC(=O)[C@H](CC(=O)O)NC(=O)[C@H](CO)NC(=O)[C@@H](NC(=O)[C@H](Cc1ccccc1)NC(=O)[C@@H](NC(=O)CNC(=O)[C@H](CCC(=O)O)NC(=O)[C@H](C)NC(=O)[C@@H](N)Cc1c[nH]cn1)[C@@H](C)O)[C@@H](C)O)C(C)C)C(=O)N[C@@H](C)C(=O)N[C@@H](Cc1c[nH]c2ccccc12)C(=O)N[C@@H](CC(C)C)C(=O)N[C@H](C(=O)N[C@@H](CCCCN)C(=O)NCC(=O)N[C@@H](CCCNC(=N)N)C(=O)NCC(=O)O)C(C)C [GLP-1(7-37)]
Effect on Aβ40 Fibrillation (Figure 4 and Figure 5) ([2]; ThT assay and TEM, summary table): Inhibition
effect on Aβ40 fibrillation ([2]; ThT assay, 10 μM ThT, 25 mM Tris-HCl, 140 mM NaCl, ex 440/em 485 nm, 2–10 repetitions): inhibit Aβ40 fibrillation; also recorded: suppressed Aβ40 fibrillation; also recorded: suppression of Aβ40 fibrillation
ability to cross the BBB ([3]; in vivo): possessed
AD Animal Data: learning and memory [4]: Positive effects on learning and memory [29]

Compound: CCCCCCCCCCCCCCCC(=O)N[C@@H](CCC(=O)NCCCC[C@H](NC(=O)[C@H](C)NC(=O)[C@H](C)NC(=O)[C@H](CCC(N)=O)NC(=O)CNC(=O)[C@H](CCC(=O)O)NC(=O)[C@H](CC(C)C)NC(=O)[C@H](Cc1ccc(O)cc1)NC(=O)[C@H](CO)NC(=O)[C@H](CO)NC(=O)[C@@H](NC(=O)[C@H](CC(=O)O)NC(=O)[C@H](CO)NC(=O)[C@@H](NC(=O)[C@H](Cc1ccccc1)NC(=O)[C@@H](NC(=O)CNC(=O)[C@H](CCC(=O)O)NC(=O)[C@H](C)NC(=O)[C@@H](N)Cc1cnc[nH]1)[C@@H](C)O)[C@@H](C)O)C(C)C)C(=O)N[C@@H](CCC(=O)O)C(=O)N[C@@H](Cc1ccccc1)C(=O)N[C@H](C(=O)N[C@@H](C)C(=O)N[C@@H](Cc1c[nH]c2ccccc12)C(=O)N[C@@H](CC(C)C)C(=O)N[C@H](C(=O)N[C@@H](CCCNC(=N)N)C(=O)NCC(=O)N[C@@H](CCCNC(=N)N)C(=O)NCC(=O)O)C(C)C)[C@@H](C)CC)C(=O)O [Lira, liraglutide]
ability to cross the BBB ([3]; conclusions, ref Table 4): possessed
peak plasma concentrations [5]: 20 to 120 nM
binding to serum albumin / clearance [6]: favors binding to serum albumin, thereby slowing the clearance of Lira
crosses the BBB [7]: crosses the BBB
effect on Aβ40 cytotoxicity ([8]; 10 µM Aβ40 + 10 µM GLP-1RA, serum-free medium): abolished this effect
effect on Aβ42 cytotoxicity ([9]; 10 µM Aβ42 + 10 µM GLP-1RA, serum-free medium): abolished this effect; also recorded: most pronounced increase in the viability of SH-SY5Y cells
Effect on Aβ Cytotoxicity to SH-SY5Y Cells (Figure 7) [10]: Protection

Compound: CN(C)C(=N)N=C(N)N [metformin]
cognition and memory [11]: can improve cognition and memory

Compound: GLP-1(7-36): N-terminally truncated form of glucagon-like peptide 1, residues 7-36 (HAEGTFTSDVSSYLEGQAAKEFIAWLVKGR; ends and bridges not checked; UniProt P01275 98-127, looked up)
protection against Aβ/iron-induced death ([12]; cultured hippocampal neurons): protects cultured hippocampal neurons against Aβ/iron-induced death
levels of APP ([12]; cultured neuronal cells): decrease levels of APP in cultured neuronal cells
Aβ levels in the mouse brain [13]: reduce Aβ levels in the mouse brain in vivo

Compound: amyloid-β peptide, residues 1-40 [Aβ40]
fibril length ([14]; printed as "up to", Aβ40 with 10 μM GLP-1RA): up to 2 µm
decrease in cell survival ([8]; 10 µM Aβ40 alone, n = 5–10): 22%

Compound: amyloid-β peptide, residues 1-42 [Aβ42]
decrease in cell survival ([9]; 10 µM Aβ42 alone, n = 5–10): 37%

Compound: donanemab
side effects ([11]; human, in vivo): brain edema and microhemorrhages

Compound: glucagon-like peptide 1 [GLP-1]
appearance of Aβ40 fibrils by TEM ([14]; after ThT assay, 20 µM Aβ40 with 10 μM GLP-1RA, 1% uranyl acetate): sporadic small fibril clusters were still observed

Compound: insulin [intranasal insulin]
cognition and memory [11]: can improve cognition and memory
